ChEMBL document CHEMBL5252651, “Discovery of Bioactive Metabolites by Acidic Stress to a Geldanamycin Producer, Streptomyces samsunensis” (J Nat Prod, 2023)
Activity calls are given as the source filed them.

Experiments:
Format in all cases: functional, organism-based
Staphylococcus aureus [1] = experiment: Anti-biofilm activity against methicillin-resistant Staphylococcus aureus USA300 LAC assessed as inhibition of biofilm formation incubated for 22 hrs by crystal violet staining based assay
Staphylococcus = experiment: Antivirulence activity against methicillin-resistant Staphylococcus aureus USA300 LAC assessed as inhibition of Phenol soluble modulin production at 5 ug/ml incubated for 22 hrs by LC-MS analysis; settings: dose 5.0 µg/ml
Staphylococcus aureus [2] = experiment: Antibacterial activity against methicillin-resistant Staphylococcus aureus USA300 LAC assessed as bacterial growth inhibition at 5 ug/ml incubated for 22 hrs by microplate reader analysis; settings: dose 5.0 µg/ml
Staphylococcus aureus [3] = experiment: Antivirulence activity against methicillin-resistant Staphylococcus aureus USA300 LAC assessed as change in RNAIII transcriptional level at 10 ug/ml incubated for 8 to 16 hrs by qRT-PCR analysis; settings: dose 10.0 µg/ml, time 8-16 hrs
Staphylococcus aureus [4] = experiment: Antibacterial activity against methicillin-resistant Staphylococcus aureus USA300 LAC assessed as bacterial growth inhibition at 10 ug/ml incubated for 22 hrs by microplate reader analysis; settings: dose 10.0 µg/ml
Staphylococcus aureus [5] = experiment: Antivirulence activity against methicillin-resistant Staphylococcus aureus USA300 LAC assessed as change in […] transcriptional level at 10 ug/ml incubated for 8 to 16 hrs by qRT-PCR analysis; settings: dose 10.0 µg/ml, time 8-16 hrs

CO[C@H]1/C=C\C=C(/C)C(=O)Nc2cc(O)c(O)c(c2O)C[C@@H](C)C[C@H](OC)[C@H](O)[C@@H](C)/C=C(\C)[C@@H]1OC(N)=O
inactive: Activity (Staphylococcus aureus [1]) | inhibition (Staphylococcus) | Activity (Staphylococcus aureus [2])

COC1=C2C[C@@H](C)C[C@H](OC)[C@H](O)[C@@H](C)/C=C(\C)[C@H](OC(N)=O)[C@@H](OC)/C=C\C=C(/C)C(=O)NC(=CC1=O)C2=O
inactive: Activity (Staphylococcus aureus [1]) | Activity (Staphylococcus aureus [3]) | inhibition (Staphylococcus) | Activity (Staphylococcus aureus [4]) | Activity (Staphylococcus aureus [2]) | Activity (Staphylococcus aureus [5])

CC(=O)Nc1cc(O)cc(C[C@@H](C)C(=O)O)c1
inactive: Activity (Staphylococcus aureus [1]) | inhibition (Staphylococcus) | Activity (Staphylococcus aureus [2])

Cc1cc(C[C@H](NC(=O)/C=C/C=C/CO)C(=O)O)ccc1O
inactive: Activity (Staphylococcus aureus [1]) | inhibition (Staphylococcus) | Activity (Staphylococcus aureus [2])

CO[C@@H](C[C@H](C)Cc1cc(O)cc(NC(C)=O)c1)C(=O)O
inactive: Activity (Staphylococcus aureus [1]) | inhibition (Staphylococcus) | Activity (Staphylococcus aureus [2])

CO[C@@H](C[C@H](C)Cc1cc(O)cc(NC(C)=O)c1)[C@H](O)[C@H](C)C(=O)O
inactive: Activity (Staphylococcus aureus [1]) | Activity (Staphylococcus aureus [3]) | inhibition (Staphylococcus) | Activity (Staphylococcus aureus [4]) | Activity (Staphylococcus aureus [2]) | Activity (Staphylococcus aureus [5])

CO[C@H]1C[C@H](C)CC2=C(O)C(=O)C=C(NC(=O)/C(C)=C/[C@@H](O)C[C@H](OC)[C@@H](OC(N)=O)/C(C)=C/[C@H](C)[C@H]1O)C2=O
inactive: Activity (Staphylococcus aureus [1]) | inhibition (Staphylococcus) | Activity (Staphylococcus aureus [2])

CO[C@H]1C[C@H](C)CC2=C(O)C(=O)C=C(NC(=O)/C(C)=C/[C@H](O)C[C@H](OC)[C@@H](OC(N)=O)/C(C)=C/[C@H](C)[C@H]1O)C2=O
inactive: Activity (Staphylococcus aureus [1]) | inhibition (Staphylococcus) | Activity (Staphylococcus aureus [2])

O=C(O)/C=C/C1=C(c2cccc(O)c2)C(=O)CC[C@H]1O
inactive: Activity (Staphylococcus aureus [1]) | inhibition (Staphylococcus) | Activity (Staphylococcus aureus [2])

CO[C@H]1/C=C\C=C(/C)C(=O)NC2=CC(=O)C(O)=C(C[C@@H](C)C[C@H](OC)[C@H](O)[C@@H](C)/C=C(\C)[C@@H]1OC(N)=O)C2=O
inactive: Activity (Staphylococcus aureus [1]) | Activity (Staphylococcus aureus [3]) | inhibition (Staphylococcus) | Activity (Staphylococcus aureus [4]) | Activity (Staphylococcus aureus [2]) | Activity (Staphylococcus aureus [5])

COc1c(-c2ccccc2)cc(O[C@@H]2O[C@H](C(=O)O)[C@@H](O)[C@H](O)[C@H]2O)c(-c2ccccc2)c1O
inactive: Activity (Staphylococcus aureus [1]) | inhibition (Staphylococcus) | Activity (Staphylococcus aureus [2])
